Results from patent publication US12365761B2, “Biodegradable ultra-pH sensitive polymers” (priority 2019, dated 2025).

System: TC-1 tumor model
Assay: PSC7A nanovaccine tumor therapy, TC-1 tumor model
Format: in vivo, C57BL/6 mice
Settings: TC-1 model, s.c. at tail base, three injections, versus PBS control
Text: The nanovaccine was made by physically mixing tumor specific antigenic peptides and PSC7A nanoparticles. Non-degradable PC7A based nanovaccines were used for comparison. […] Tumor growth was subsequently measured using a digital caliper and calculated as 0.5×length×width^2. Mice were sacrificed when the tumor volumes reached 2000 mm^3.
PSC7A nanoparticles were first produced and then mixed with tumor-specific antigenic peptides. Human papilloma virus (HPV) E6/E7-transfected TC-1 and murine B16-F10 melanoma tumor models were used. […] In the TC-1 model, E7 peptide antigen (E7p, […] (SEQ. No. 1)) was used. […] Most of the animals were lost within 30 days after tumor inoculation.

With GQAEPDRAHYNIVTFCCKCD [E7p] the tumor growth inhibition was “marginal tumor growth inhibition”.
